Experiments:
[1] = system: Cbfa1, ALP, Col I, OCN, RANKL, OPG mRNA in long bone; assay: Real-time RT-PCR of long bone extracts of OVX mice; type: in vivo, mouse; conditions: 10 nmol/kg s.c. daily for 4 weeks, n = 6
Protocol: (§1) Twenty four female C57BL/6J mice, 8 weeks age, were assigned to four different groups, with six mice per group. All mice were anesthetized with chloral hydrate (0.4 ml/100 g body weight) and subjected to surgery on day 0. Sham surgery was performed on the Sham group (Sham) by identifying the bilateral ovaries and ovariectomy (OVX) was performed on the other groups by removing the bilateral ovaries. After surgery, all mice were maintained in a virus- and parasite-free barrier facility and exposed to a 12-h/12-h light/dark cycle under standard conditions in the Medical Experimental Animal Center of Nanjing Medical University for 9 weeks. HPTHrP1–34 was subcutaneously administered at a dose of 10 nmol/kg (40 µg/kg) body weight everyday for the last 4 weeks. HPTHrP1–84 was subcutaneously administered at a dose of 10 nmol/kg (100 µg/kg) body weight everyday for the last 4 weeks. Each of the mice received vehicle (vehicle-treated sham-operated mice and vehicle-treated OVX mice), hPTHrP1-34 (hPTHrP1-34-treated OVX mice) or hPTHrP1-84 (hPTHrP1-84-treated OVX mice). At the end of experiments, all mice were sacrificed by exsanguination under chloral hydrate anesthesia and blood were collected for serum calcium, phosphorus and ALP analyses, bones and kidneys were then removed for the analyses described below.
RNA was isolated from 14-day cultured cells using Trizol reagent (Invitrogen) according to the manufacturer's protocol. Femurs were isolated and weighted. Homogenize tissue samples in 1 ml of TRIzol reagent per 50–100 mg of tissue using mortar and pestle with liquid nitrogen. After homogenization, remove insoluble material from the homogenate by centrifuging at 12,000 RPM for 10 min at 4°C. Transfer the top layer solution into a new tube. RNA of this solution was precipitated with isopropanol, washed with 75% ethanol and dissolved with DEPC water. Reverse transcription reactions were performed using the SuperScript First-Strand Synthesis System (Invitrogen) as previously described. […]

[2] = system: OVX mice (osteoporosis model); assay: Osteoblastic bone formation parameters of vertebrae in OVX mice; type: in vivo, mouse; conditions: 10 nmol/kg s.c. daily for 4 weeks, compared to vehicle-treated sham-operated mice, n = 6
Protocol: as §1
Lumbar vertebrae or tibiae were removed and fixed in PLP fixative (2% paraformaldehyde containing 0.075 M lysine and 0.01 M sodium periodate solution) overnight at 4°C and processed histologically as described. Lumbar vertebrae were decalcified in ethylene-diamine tetraacetic acid (EDTA) glycerol solution for 5–7 days at 4°C. Decalcified samples were dehydrated and embedded in paraffin after which 5 µm sections were cut on a rotary microtome. […]
Double calcein labeling was performed by intraperitoneal injection of mice with 10 µg calcein/g body weight (C-0875, Sigma-Aldrich Corp., St. Louis, MO) at 10 and 3 day before death. […] Serial sections were cut, and the freshly cut surface of each section was viewed and imaged using fluorescence microscopy. The double calcein-labeled width of bone was measured using Northern Eclipse image analysis software version 6.0 (Empix Imaging, Inc., Mississauga, Canada), and the mineral apposition rate (MAR) was calculated as the interlabel width/labeling period.
(§2) After HE staining or histochemical staining of sections from six mice of each genotype, images of fields were photographed with a Sony digital camera. All images were digitally recorded using a rectangular template, and recordings were processed and analyzed using Northern Eclipse image analysis software as described, [26], [28].

[3] = system: OVX mice (osteoporosis model); assay: Bone volume of vertebrae in OVX mice (radiography, micro-CT, histology); type: in vivo, mouse; conditions: 10 nmol/kg s.c. daily for 4 weeks
Protocol: as §1
Thoracic vertebrae were removed and dissected free of soft tissue. […]
Thoracic vertebrae were fixed overnight in 70% ethanol and analyzed by micro-CT with a SkyScan 1072 scanner and associated analysis software (SkyScan, Antwerp, Belgium) as described. […]
Total collagen was detected in paraffin sections using a modified method of Lopez-De Leon and Rojkind. […]
as §2

[4] = Serum PTHrP analyses (ELISA) after subcutaneous injection; type: in vivo, mouse; conditions: OVX mice, 10 nmol/kg s.c.
Protocol: The OVX mice were injected with vehicle or 10 nmol/kg hPTHrP1-34 or 10 nmol/kg hPTHrP1-84 subcutaneously. Subsequently, blood samples were drawn at 15 and 30 minutes, 1, 2, 4 and 6 hours after the injections. Serum concentrations of hPTHrP1-34 or hPTHrP1-84 were measured by enzyme linked immunosorbent assay (ELISA) that used Phoenix Pharmaceuticals PTHrP(1-34)- EIA Kit (Phoenix Pharmaceuticals, USA). Procedures were performed according to the instructions of the kit.

[5] = Serum calcium, phosphorus and ALP in OVX mice; type: in vivo, mouse; conditions: 10 nmol/kg s.c. daily for 4 weeks, versus vehicle-treated OVX mice, n = 6
Protocol: as §1, with “At the end of experiments, all mice were sacrificed by exsanguination under chloral hydrate anesthesia and blood were collected for serum calcium, phosphorus and ALP analyses, bones and kidneys were then removed for the analyses described below.” left out
Serum calcium, phosphorus and ALP were determined at 4 weeks after the administration of drugs by autoanalyzer (Beckman Synchron 67; Beckman Instruments).

[6] = system: primary bone marrow cells (BMC); assay: Primary bone marrow cell culture, cytochemical colony (CFU-f) staining; type: cell-based, rat; conditions: 10^-7 M on day 0, 18-day primary BMC cultures, compared with control cultures; triplicate determinations, three experiments
Protocol: Tibiae and femurs of 200-g male Wistar rats were removed under aseptic conditions, and bone marrow cells (BMC) were flushed out with Dulbecco's modified Eagle's minimal essential medium containing 10% fetal calf serum, 50 µg/ml ascorbic acid, 10 mM β-glycerophosphate, and 10^−8 M dexamethasone. Cells were dispersed by repeated pipetting, and a single-cell suspension was achieved by forcefully expelling the cells through a 22-gauge syringe needle. 10^6 total bone marrow cells were cultured in 36-cm^2 Petri dishes in 5 ml of the above-mentioned medium. All the dishes were assigned to three different groups. Each of the group treated with vehicle (Control), 10^−7 M hPTHrP1-34 or 10^−7 M hPTHrP1-84. The medium was changed every 4 days. The non-adherent cells containing hematopoietic elements were removed by pipetting gently when the medium was changed for the first time. Only monocytic cells remained. Cultures were maintained for 12–18 days. At the end of the culture period cells were stained cytochemically or RNA was extracted from these cells for RT-PCR as described below. The cells from 18-day primary BMC cultures were washed with PBS and fixed by the addition of cold ethanol. […] The numbers of colonies were counted macroscopically by hand. […]

[7] = system: OVX mice (osteoporosis model); assay: Osteoclastic bone resorption (TRAP staining) in OVX mice; type: in vivo, mouse; conditions: 10 nmol/kg s.c. daily for 4 weeks, vertebrae, compared with vehicle-treated OVX mice, n = 6
Protocol: as §1, with “At the end of experiments, all mice were sacrificed by exsanguination under chloral hydrate anesthesia and blood were collected for serum calcium, phosphorus and ALP analyses, bones and kidneys were then removed for the analyses described below.” left out
as §2

[8] = system: renal calcium transporters (calbindin-D28K, calbindin-D9K, NCX1, TRPV5); assay: Western blot of renal calcium transporters in OVX mice; type: in vivo, mouse; conditions: 10 nmol/kg s.c. daily for 4 weeks, relative to vehicle-treated sham-operated mice, n = 6
Protocol: as §1, with “At the end of experiments, all mice were sacrificed by exsanguination under chloral hydrate anesthesia and blood were collected for serum calcium, phosphorus and ALP analyses, bones and kidneys were then removed for the analyses described below.” left out
Purified hPTHrP1-34 and 1-84 and proteins extracted from kidney were quantitated by a kit (Bio-Rad, Mississauga, Ontario, Canada). […] Bands were visualized using ECL chemiluminescence (Amersham) and quantitated by Scion Image Beta 4.02 (Scion Corporation, NIH).

[9] = system: Cbfa-1, ALP, Col I, OCN mRNA in primary BMC; assay: Real-time RT-PCR of osteogenic genes in 14-day primary BMC cultures; type: cell-based, rat; conditions: 10^-7 M, ratio to GAPDH, compared with control cultures, three trials
Protocol: Tibiae and femurs of 200-g male Wistar rats were removed under aseptic conditions, and bone marrow cells (BMC) were flushed out with Dulbecco's modified Eagle's minimal essential medium containing 10% fetal calf serum, 50 µg/ml ascorbic acid, 10 mM β-glycerophosphate, and 10^−8 M dexamethasone. Cells were dispersed by repeated pipetting, and a single-cell suspension was achieved by forcefully expelling the cells through a 22-gauge syringe needle. 10^6 total bone marrow cells were cultured in 36-cm^2 Petri dishes in 5 ml of the above-mentioned medium. All the dishes were assigned to three different groups. Each of the group treated with vehicle (Control), 10^−7 M hPTHrP1-34 or 10^−7 M hPTHrP1-84. The medium was changed every 4 days. The non-adherent cells containing hematopoietic elements were removed by pipetting gently when the medium was changed for the first time. Only monocytic cells remained. Cultures were maintained for 12–18 days. At the end of the culture period cells were stained cytochemically or RNA was extracted from these cells for RT-PCR as described below.
RNA was isolated from 14-day cultured cells using Trizol reagent (Invitrogen) according to the manufacturer's protocol. Femurs were isolated and weighted. Homogenize tissue samples in 1 ml of TRIzol reagent per 50–100 mg of tissue using mortar and pestle with liquid nitrogen. […]

[10] = system: placental calcium transport; conditions: cited from earlier work
From the text: It supports the concept that the mid-molecule region of PTHrP is functionally important in placental calcium transport. […] However, it is unclear whether there are some differences between PTHrP1-34 and 1-84 on renal calcium reabsorption and on bone formation. To answer this que ...

[11] = compared to vehicle-treated sham-operated mice
[12] = vertebrae, micro-CT and histology, compared to vehicle-treated OVX mice (hPTHrP1-84 also to hPTHrP1-34-treated), n = 6

hPTHrP1-34: recombinant human parathyroid hormone related protein 1-34, expressed as GST fusion in E. coli BL21 and cleaved by thrombin
ratios of RANKL/OPG mRNA levels ([1]; among vehicle-treated, hPTHrP1-34-treated and hPTHrP 1-84-treated OVX mice): no significant differences
osteoblastic gene expression levels of Cbfa1, ALP [1, 11]: slightly up-regulated
ratios of RANKL/OPG mRNA levels [1, 11]: increased significantly
ALP positive area [2]: increased
MAR (mineral apposition rate) [2]: decreased
osteoblast number [2]: increased
osteoid volume [2]: not altered significantly
radiolucency in vertebrae ([3]; radiography, compared to vehicle-treated sham-operated mice): increased
cortical thickness [3, 12]: not altered significantly
trabecular bone volume [3, 12]: not altered significantly
circulating t1/2 ([4]; ELISA, read from the figure (Fig. 6e), approximate): approximately 45 mins
time at which plasma PTHrP levels declined to baseline levels ([4]; ELISA, sampling 15 and 30 min, 1, 2, 4, 6 h, n = 6): 2 h
plasma PTHrP levels at 15 min after the administration ([4]; single injection, PTHrP(1-34) EIA kit (ELISA), mean ± SEM, n = 6): 9 ± 0.7 pM
Serum mineral ion and ALP levels [5]: no significant differences
colony formation and osteogenic cell differentiation and mineralization [6]: significant increase
TRAP positive osteoclast number [7]: did not further increase
TRAP positive osteoclast surface [7]: did not further increase
protein levels of calbindin-D28K, calbindin-D9K, NCX1 and TRPV5 in the kidney [8]: down-regulated
gene expression levels of Cbfa-1, ALP, type I collagen (Col I) and osteocalcin (OCN) [9]: upregulated significantly

synthetic PTHrP1-34: synthetic PTHrP1-34 of the literature study on placental calcium transfer (ref 18)
placental calcium transfer [10]: no such effect
